# In the supplement of paper PMC11616607:
# Columns and labels:
# Assay in all cases: drug sensitivity score (DSS) from 5-point dose-response viability curve (DSS (area-under-curve based score)); higher = more sensitive (stronger growth inhibition or killing); extreme values may be limits of the assay
# Details in all cases: exposure time: 72 h; concentration range: 5 concentrations over 10,000-fold range
# [1] = tested on: COV362
# In short: (§1)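 Drug sensitivity scores were calculated in Breeze software for each cell line and drug pair; higher scores indicate more sensitivity. A score of zero indicates no response. The underlying assay used 384-well plates: drugs were placed by an Echo 550 acoustic dispenser at five concentrations spanning a 10,000-fold range, 1,500 ovarian cancer or normal ovarian cells were added per well, and cells were kept 3 days at 37°C, 5% CO2. Viability was then measured with CellTiter-Glo luminescence on a PHERAstar FS.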
# [2] = tested on: COV318
# In short: as §1
# [3] = tested on: Kuramochi
# In short: as §1
# [4] = tested on: HOSE2C
# In short: as §1
# [5] = tested on: HOSE1C
# In short: as §1
# [6] = tested on: OVCAR4
# In short: as §1
# [7] = tested on: Ovsaho
# In short: as §1
# [8] = tested on: OVCAR8
# In short: as §1
# [9] = tested on: JHOS2
# In short: as §1
# [10] = tested on: CAOV3
# In short: as §1
# [11] = tested on: OVCAR5
# In short: as §1
# [12] = tested on: OV90
# In short: as §1
Structure (SMILES),drug sensitivity score [1],drug sensitivity score [2],drug sensitivity score [3],drug sensitivity score [4],drug sensitivity score [5],drug sensitivity score [6],drug sensitivity score [7],drug sensitivity score [8],drug sensitivity score [9],drug sensitivity score [10],drug sensitivity score [11],drug sensitivity score [12]
N#CC(c1ccnc(OCc2ccc(CN3CCOCC3)cc2)n1)c1nc2ccccc2s1 (stereo not given) [Bentamapimod],3.8,1.3,2,0.3,0,1.8,1.1,2.3,1.4,1.5,4.5,5.5
CC(C)c1cc(-c2n[nH]c(=O)n2-c2ccc3c(ccn3C)c2)c(O)cc1O [Ganetespib],12.7,10.3,11.9,26.1,22.9,11.3,5,17,18,16.2,13.6,15.3
CNC(=O)c1ccc(-c2cnc3ncc(Cc4ccc5ncccc5c4)n3n2)cc1F [Capmatinib],0,0,0.1,0,0,0,0,0,0,0,0,0
CC(C)C[C@H](NC(=O)CNC(=O)c1cc(Cl)ccc1Cl)B(O)O [Ixazomib],10.5,16.4,2.7,7.8,7.4,6.5,7,9,10.6,11.6,10.4,5.5
CC1(C)NC(=O)N(c2ccc([N+](=O)[O-])c(C(F)(F)F)c2)C1=O [Nilutamide],0,0,1.6,0,0.8,0,0,0,0.6,0,0.1,0
O=C(Nc1ccc(OC(F)(F)Cl)cc1)c1cnc(N2CC[C@@H](O)C2)c(-c2cc[nH]n2)c1 [Asciminib],0,0,0.2,0,0,0.3,0,0,0,0,0.4,0
CC(C)C[C@H](NC(=O)[C@@H](COC(C)(C)C)NC(=O)[C@H](Cc1ccc(O)cc1)NC(=O)[C@H](CO)NC(=O)[C@H](Cc1c[nH]c2ccccc12)NC(=O)[C@H](Cc1cnc[nH]1)NC(=O)[C@@H]1CCC(=O)N1)C(=O)N[C@@H](CCCNC(=N)N)C(=O)N1CCC[C@H]1C(=O)NNC(N)=O [Goserelin],0,0,0,0,0,0,4.7,0,0,0,0,0
NC(=O)NO [Hydroxyurea],0.1,1.7,0,8,8.2,0,2.3,5.1,3.3,1.1,2.9,2.8
COc1cc(CCc2cc(NC(=O)c3ccc(N4CC(C)NC(C)C4)cc3)n[nH]2)cc(OC)c1 (stereo not given) [AZD4547],0,0,0,5.8,0.8,0,0,0,0,0,0,0
COc1cc2c(N3CCN(C(=O)Nc4ccc(OC(C)C)cc4)CC3)ncnc2cc1OCCCN1CCCCC1 [Tandutinib],0,0,0,0,0,0,0,0,0,0,0,0
CC[C@@]1(O)C(=O)OCc2c1cc1n(c2=O)Cc2cc3c(CN(C)C)c(O)ccc3nc2-1 [Topotecan],5.7,6.3,5.4,24.8,26.6,7.2,8.5,13.5,11,18.2,10.1,15.4
CC1(C)CNc2cc(NC(=O)c3cccnc3NCc3ccncc3)ccc21 [Motesanib],0,1.1,2.1,0,0,0,3.5,0,0,0,0,0.3
O=C(Nc1cc(Oc2cc(F)c(NC(=O)C3(C(=O)Nc4ccc(F)cc4)CC3)cc2F)ccn1)C1CC1 [Altiratinib],3,1.7,4.3,3.4,4.2,3.3,3.6,6,4.3,2.7,6.6,0
CO[C@@]12[C@H](COC(N)=O)C3=C(C(=O)C(C)=C(N)C3=O)N1C[C@@H]1N[C@@H]12 [Mitomycin C],0,0,0,0,0,0,0,0,0,4.7,0,0.9
CCN(CC)CCCC(C)Nc1c2ccc(Cl)cc2nc2ccc(OC)cc12 (stereo not given) [Mepacrine],10.3,10.3,13.2,8.2,9.7,15.2,13.1,12.1,10.5,9.4,13.1,16
C[C@]12C=CC(=O)C=C1CC[C@@H]1[C@@H]2[C@@H](O)C[C@@]2(C)[C@H]1CC[C@]2(O)C(=O)CO [Prednisolone],0,1.1,0,3.3,0,0,0,0.1,0.1,0,0,0.1
CC1(C)C(C(=O)Nc2ccc(S(=O)(=O)c3ccc(NC(=O)C4C(C)(C)C4(C)C)cc3)cc2)C1(C)C [BRD7116],0,0.1,2.1,0,0,2.1,3.8,0,0.7,0.3,2.1,0
CC(=O)O[C@]1(C(C)=O)CC[C@H]2[C@@H]3C=C(C)C4=CC(=O)CC[C@]4(C)[C@H]3CC[C@@]21C [Megestrol acetate],0,0,0,0,0,0,0,0.4,0,0,0,0
Cc1c(-c2c(-c3ccc(F)o3)sc3ncnc(O[C@H](Cc4ccccc4OCc4ccnn4CC(F)(F)F)C(=O)O)c23)ccc(OCCN2CCN(C)CC2)c1Cl,0.4,0.2,0,0,0,0.6,0,0,0,0,0.1,0.1
C[C@]1(c2nc3c(C(N)=O)cccc3[nH]2)CCCN1 [Veliparib],0,0,0,0,0,0,0.4,0.2,0,0,1.3,0.7
C[C@]12CC[C@@H]3c4ccc(O)cc4C[C@@H](CCCCCCCCC[S+]([O-])CCCC(F)(F)C(F)(F)F)[C@H]3[C@@H]1CC[C@@H]2O (stereo not given in full) [Fulvestrant],0,0,0,0,0,0,0,0,0,0,0,0
COc1cccc(OCCCN)c1-c1cc(Nc2cnc(C#N)cn2)n[nH]1 [Prexasertib],16.8,22.9,19.8,36.7,40.9,21.8,16.1,30.1,22.4,24.8,25,16.7
NC1(c2ccc(-c3nc4ccn5c(=O)[nH]nc5c4cc3-c3ccccc3)cc2)CCC1 [MK-2206],0.4,1.2,4.4,2.6,2.1,0.4,2.6,0,0,1.9,2,1.9
CC[C@@H]1C(=O)N(C)c2cnc(Nc3ccc(C(=O)NC4CCN(C)CC4)cc3OC)nc2N1C1CCCC1 [BI 2536],2.1,3.9,11.4,8.7,12.5,3.9,19.7,23.5,11.9,18.3,17.7,15
CN(c1ncccc1CNc1nc(Nc2ccc3c(c2)CC(=O)N3)ncc1C(F)(F)F)S(C)(=O)=O,3.5,1.9,5.5,3.9,4.6,4.7,5.7,4.3,5.1,7.4,6.1,5.9
Cc1cn(-c2cc(NC(=O)c3ccc(C)c(Nc4nccc(-c5cnccn5)n4)c3)cc(C(F)(F)F)c2)cn1 [Radotinib],0,0,0.9,0,0,0,0,0,0,0,0,1.3
COc1cccc2c1c(O)c(C(=O)N(C)c1ccc(C(F)(F)F)cc1)c(=O)n2C [Tasquinimod],0,0,0.2,0,0,1.9,2,0,0.6,0,0,0
CCCCNc1ncc(C(=O)NCc2ccc(-n3ccnc3)cc2)c(NC2CCC(O)CC2)n1 (stereo not given) [UNC2881],0,0,0,0.5,0,0.1,0.8,0,0,0.2,0.6,1.2
CNC(=O)c1cccc2cc(Oc3ccnc4cc(OCC5(N)CC5)c(OC)cc34)ccc12 [Lucitanib],0,2.3,0.1,5.9,1.5,2.4,0.8,2.3,0.4,0,1.6,1.1
CCn1c(-c2nonc2N)nc2c(C#CC(C)(C)O)ncc(OC[C@H]3CCCNC3)c21,1.3,0,2.9,3.7,1.4,0,0.5,0,0,4.3,0,0.6
